PubChem BioAssay (NCI)
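Here, GI50 denotes the concentration required for 50% inhibition of growth. Definition used: TGI = concentration required for complete inhibition of growth.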

What was measured:
Test in all cases: NCI-60 cell line screen, 384-well format; in the data active = GI50 below about 0.43 µM; inactive = the rest
HCT-116 colon = test system: HCT-116 colon
OVCAR-4 ovarian = test system: OVCAR-4 ovarian
NCI-H522 lung = test system: NCI-H522 lung
DU-145 prostate = test system: DU-145 prostate
MCF7 breast = test system: MCF7 breast
A498 renal = test system: A498 renal
SK-MEL-5 melanoma = test system: SK-MEL-5 melanoma
SK-MEL-2 melanoma = test system: SK-MEL-2 melanoma
A549 NSCLC = test system: A549 NSCLC
U251 glioblastoma = test system: U251 glioblastoma
KM12 colon = test system: KM12 colon
LOX IMVI melanoma = test system: LOX IMVI melanoma
SN12C renal = test system: SN12C renal

COCc1c(-c2cc3cc(C)cc(OC)c3s2)c2c(N)ncnn2c1CN1CCNC(=O)C1
inactive: GI50 (HCT-116 colon) 7.4 µM | GI50 (OVCAR-4 ovarian) 13.9 µM | GI50 (NCI-H522 lung) 3.66 µM | GI50 (DU-145 prostate) 6.79 µM | GI50 (MCF7 breast) 5.56 µM | GI50 (A498 renal) 3.32 µM | GI50 (SK-MEL-5 melanoma) 7.29 µM | GI50 (SK-MEL-2 melanoma) 4.38 µM | GI50 (A549 NSCLC) 5.49 µM | GI50 (U251 glioblastoma) 12.1 µM | GI50 (KM12 colon) 9.87 µM | GI50 (LOX IMVI melanoma) 5.57 µM | GI50 (SN12C renal) 7.95 µM
> 100 µM: TGI (HCT-116 colon) | TGI (OVCAR-4 ovarian) | TGI (DU-145 prostate) | TGI (MCF7 breast) | TGI (A549 NSCLC) | TGI (U251 glioblastoma) | TGI (KM12 colon)
31.3 µM: TGI (SK-MEL-5 melanoma)
13.6 µM: TGI (SK-MEL-2 melanoma)
> 73.6 µM: TGI (SN12C renal)
30.6 µM: TGI (NCI-H522 lung)
40.5 µM: TGI (A498 renal)
25.6 µM: TGI (LOX IMVI melanoma)
